How the values were obtained:
[1] = target: GDP-bound NRAS wild-type protein (Homo sapiens, UniProt P01111); assay: Binding to NRAS by surface plasmon resonance (SPR), Single Cycle Kinetics; conditions: KD ratio NRAS/KRAS, class symbols
[2] = target: GDP-bound HRAS wild-type protein (Homo sapiens, UniProt P01112); assay: Binding to HRAS by surface plasmon resonance (SPR), Single Cycle Kinetics; conditions: KD ratio HRAS/KRAS, class symbols
Sequence of GDP-bound HRAS wild-type protein (P01112 whole entry): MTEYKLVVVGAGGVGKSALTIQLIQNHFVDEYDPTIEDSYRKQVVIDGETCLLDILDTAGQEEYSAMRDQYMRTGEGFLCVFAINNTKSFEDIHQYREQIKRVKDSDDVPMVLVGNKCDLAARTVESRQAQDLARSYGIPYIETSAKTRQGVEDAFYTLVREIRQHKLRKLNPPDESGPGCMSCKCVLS

Sequence of GDP-bound NRAS wild-type protein (P01111 whole entry): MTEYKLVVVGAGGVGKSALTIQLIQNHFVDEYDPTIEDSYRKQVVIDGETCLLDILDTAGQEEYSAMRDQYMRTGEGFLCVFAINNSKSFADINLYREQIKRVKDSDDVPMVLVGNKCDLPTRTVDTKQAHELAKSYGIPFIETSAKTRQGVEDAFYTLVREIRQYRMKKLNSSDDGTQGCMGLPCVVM

Row | SMILES | NRAS/KRAS (ratio of KD value with respect to GDP-bound NRAS wild-type protein to KD value with respect to KRAS) [1] | HRAS/KRAS (ratio of KD value with respect to GDP-bound HRAS wild-type protein to KD value with respect to KRAS) [2]
1 | CCC[C@H]1C(=O)N[C@@H]([C@@H](C)CC)C(=O)N(C)CC(=O)N(C)[C@H]2C/C=C\CCN(C2=O)[C@@H](Cc2ccc(C(F)(F)F)cc2)C(=O)N(C)CC(=O)N[C@@H](CCc2ccc(C(F)(F)F)c(OC)c2)C(=O)N2CC[C@H]2C(=O)NC2(CC(C)(C)C2)C(=O)N(C)[C@@H](C(CC)CC)C(=O)N(C)[C@H](C(=O)N(C)C)CC(=O)N1C [PP2936] | AA (a compound having 20 or more is denoted as AA) | A (a compound having 10 or more and less than 20 is denoted as A)
2 | CCC(CC)[C@H]1C(=O)N(C)[C@H](C(=O)N(C)C)CC(=O)N(C)[C@@H](COC)C(=O)N[C@@H]([C@@H](C)CC)C(=O)N(C)CC(=O)N(C)[C@H]2C/C=C\CCN(C2=O)[C@@H](Cc2ccc(C)cc2)C(=O)N(C)CC(=O)N[C@@H](CCc2ccc(C(F)(F)F)c(OC)c2)C(=O)N2CCCC[C@H]2C(=O)NC2(CC(C)(C)C2)C(=O)N1C [PP2937] | A (a compound having 10 or more and less than 20 is denoted as A) | A (a compound having 10 or more and less than 20 is denoted as A)
3 | CCC(CC)[C@H]1C(=O)N(C)[C@H](C(=O)N(C)C)CC(=O)N(C)[C@@H](COC)C(=O)N[C@@H]([C@@H](C)CC)C(=O)N(C)CC(=O)N(C)[C@H]2C/C=C\CCN(C2=O)[C@@H](Cc2ccc(C)cc2)C(=O)N(C)CC(=O)N[C@@H](CCc2ccc(C(F)(F)F)c(OC)c2)C(=O)N2CCOC[C@H]2C(=O)NC2(CC(C)(C)C2)C(=O)N1C [PP2938] | AA (a compound having 20 or more is denoted as AA) | A (a compound having 10 or more and less than 20 is denoted as A)
4 | CCC(CC)[C@H]1C(=O)N(C)[C@H](C(=O)N(C)C)CC(=O)N(C)[C@@H](COC)C(=O)N[C@@H]([C@@H](C)CC)C(=O)N(C)CC(=O)N(C)[C@H]2C/C=C\CCN(C2=O)[C@@H](Cc2ccc(C(F)(F)F)cc2)C(=O)N(C)CC(=O)N[C@@H](CCc2ccc(Cl)c(Cl)c2)C(=O)N2CCOC[C@H]2C(=O)NC2(CC(C)(C)C2)C(=O)N1C [PP2941] | AA (a compound having 20 or more is denoted as AA) | A (a compound having 10 or more and less than 20 is denoted as A)
5 | CCC[C@H]1C(=O)N[C@@H]([C@@H](C)CC)C(=O)N(C)CC(=O)N(C)[C@H]2C/C=C\CCN(C2=O)[C@@H](Cc2ccc(C(F)(F)F)cc2)C(=O)N(C)CC(=O)N[C@@H](CCc2cc(Cl)c3sccc3c2)C(=O)N2C[C@H](OCC)C[C@H]2C(=O)NC2(CC(C)(C)C2)C(=O)N(C)[C@@H](C2CCCC2)C(=O)N(C)[C@H](C(=O)N(C)C)CC(=O)N1C [PP2946] | A (a compound having 10 or more and less than 20 is denoted as A) | A (a compound having 10 or more and less than 20 is denoted as A)
6 | CCC[C@H]1C(=O)N[C@@H]([C@@H](C)CC)C(=O)N(C)CC(=O)N(C)[C@H]2C/C=C\CCN(C2=O)[C@@H](Cc2ccc(C)cc2)C(=O)N(C)CC(=O)N[C@@H](CCc2cc(Cl)c3sccc3c2)C(=O)N2C[C@H](OCC)C[C@H]2C(=O)NC2(CC(C)(C)C2)C(=O)N(C)[C@@H](C2CCCC2)C(=O)N(C)[C@H](C(=O)N(C)C)CC(=O)N1C [PP2947] | B (a compound having 3 or more and less than 10 is denoted as B) | B (a compound having 3 or more and less than 10 is denoted as B)
7 | CCC[C@H]1C(=O)N[C@@H]([C@@H](C)CC)C(=O)N(C)CC(=O)N(C)[C@H]2C/C=C\CCN(C2=O)[C@@H](Cc2ccc(C(F)(F)F)cc2)C(=O)N(C)CC(=O)N[C@@H](CCc2ccc3sc(F)c(C)c3c2)C(=O)N2C[C@H](OCC)C[C@H]2C(=O)NC2(CC(C)(C)C2)C(=O)N(C)[C@@H](C2CCCC2)C(=O)N(C)[C@H](C(=O)N(C)C)CC(=O)N1C [PP2948] | A (a compound having 10 or more and less than 20 is denoted as A) | A (a compound having 10 or more and less than 20 is denoted as A)
8 | CCC[C@H]1C(=O)N[C@@H]([C@@H](C)CC)C(=O)N(C)CC(=O)N(C)[C@H]2C/C=C\CCN(C2=O)[C@@H](Cc2ccc(C)cc2)C(=O)N(C)CC(=O)N[C@@H](CCc2ccc3sc(F)c(C)c3c2)C(=O)N2C[C@H](OCC)C[C@H]2C(=O)NC2(CC(C)(C)C2)C(=O)N(C)[C@@H](C2CCCC2)C(=O)N(C)[C@H](C(=O)N(C)C)CC(=O)N1C [PP2949] | A (a compound having 10 or more and less than 20 is denoted as A) | A (a compound having 10 or more and less than 20 is denoted as A)
9 | CCC[C@H]1C(=O)N[C@@H]([C@@H](C)CC)C(=O)N(C)CC(=O)N(C)[C@H]2C/C=C\CCN(C2=O)[C@@H](Cc2ccc(C(F)(F)F)cc2)C(=O)N(C)CC(=O)N[C@@H](CCc2cc(Cl)c3c(ccn3C)c2)C(=O)N2C[C@H](OCC)C[C@H]2C(=O)NC2(CC(C)(C)C2)C(=O)N(C)[C@@H](C2CCCC2)C(=O)N(C)[C@H](C(=O)N(C)C)CC(=O)N1C [PP2950] | A (a compound having 10 or more and less than 20 is denoted as A) | A (a compound having 10 or more and less than 20 is denoted as A)
10 | CCC[C@H]1C(=O)N[C@@H]([C@@H](C)CC)C(=O)N(C)CC(=O)N(C)[C@H]2C/C=C\CCN(C2=O)[C@@H](Cc2ccc(C)cc2)C(=O)N(C)CC(=O)N[C@@H](CCc2cc(Cl)c3c(ccn3C)c2)C(=O)N2C[C@H](OCC)C[C@H]2C(=O)NC2(CC(C)(C)C2)C(=O)N(C)[C@@H](C2CCCC2)C(=O)N(C)[C@H](C(=O)N(C)C)CC(=O)N1C [PP2951] | A (a compound having 10 or more and less than 20 is denoted as A) | A (a compound having 10 or more and less than 20 is denoted as A)
11 | CCO[C@@H]1C[C@H]2C(=O)NC3(CC(C)(C)C3)C(=O)N(C)[C@@H](C(CC)CC)C(=O)N(C)[C@H](C(=O)N3CCCCC3)CC(=O)N(C)[C@H]3CCC/C=C/c4ccc(cc4)C[C@@H](C(=O)N(C)CC(=O)N[C@@H](CCc4cc(F)c(C(F)(F)F)c(F)c4)C(=O)N2C1)N1CC/C=C\C[C@@H](C1=O)N(C)C(=O)CN(C)C(=O)[C@H]([C@@H](C)CC)NC3=O [PP2952] | AA (a compound having 20 or more is denoted as AA) | A (a compound having 10 or more and less than 20 is denoted as A)
12 | CCO[C@@H]1C[C@H]2C(=O)NC3(CC(C)(C)C3)C(=O)N(C)[C@@H](C(CC)CC)C(=O)N(C)[C@H](C(=O)N3CCCCC3)CC(=O)N(C)[C@H]3CCC/C=C/c4ccc(cc4)C[C@@H](C(=O)N(C)CC(=O)N[C@@H](CCc4ccc(Cl)c(Cl)c4)C(=O)N2C1)N1CC/C=C\C[C@@H](C1=O)N(C)C(=O)CN(C)C(=O)[C@H]([C@@H](C)CC)NC3=O [PP2953] | AA (a compound having 20 or more is denoted as AA) | A (a compound having 10 or more and less than 20 is denoted as A)
13 | CCO[C@@H]1C[C@H]2C(=O)NC3(CCC3)C(=O)N(C)[C@@H](C3CCCC3)C(=O)N(C)[C@H](C(=O)N3CCCCC3)CC(=O)N(C)[C@H]3CCC/C=C/c4ccc(cc4)C[C@@H](C(=O)N(C)CC(=O)N[C@@H](CCc4cc(F)c(C(F)(F)F)c(F)c4)C(=O)N2C1)N1CC/C=C\C[C@@H](C1=O)N(C)C(=O)CN(C1CC1)C(=O)[C@H]([C@@H](C)CC)NC3=O [PP2954] | A (a compound having 10 or more and less than 20 is denoted as A) | A (a compound having 10 or more and less than 20 is denoted as A)
14 | CCO[C@@H]1C[C@H]2C(=O)NC3(CC(C)(C)C3)C(=O)N(C)[C@@H](C(CC)CC)C(=O)N(C)[C@H](C(=O)N(C)C)CC(=O)N(C)[C@H]3CCC/C=C/c4ccc(cc4)C[C@@H](C(=O)N(C)CC(=O)N[C@@H](CCc4cc(F)c(C(F)(F)F)c(F)c4)C(=O)N2C1)N1CC/C=C\C[C@@H](C1=O)N(C)C(=O)CN(C1CC1)C(=O)[C@H]([C@@H](C)CC)NC3=O [PP2955] | A (a compound having 10 or more and less than 20 is denoted as A) | A (a compound having 10 or more and less than 20 is denoted as A)
15 | CCO[C@@H]1C[C@H]2C(=O)NC3(CCC3)C(=O)N(C)[C@@H](C(CC)CC)C(=O)N(C)[C@H](C(=O)N3CCCCC3)CC(=O)N(C)[C@H]3CCC/C=C/c4ccc(cc4)C[C@@H](C(=O)N(C)CC(=O)N[C@@H](CCc4cc(F)c(C(F)(F)F)c(F)c4)C(=O)N2C1)N1CC/C=C\C[C@@H](C1=O)N(C)C(=O)CN(C1CC1)C(=O)[C@H]([C@@H](C)CC)NC3=O [PP2956] | AA (a compound having 20 or more is denoted as AA) | A (a compound having 10 or more and less than 20 is denoted as A)
16 | CCO[C@@H]1C[C@H]2C(=O)NC3(CCC3)C(=O)N(C)[C@@H](C(CC)CC)C(=O)N(C)[C@H](C(=O)N3CCCC3)CC(=O)N(C)[C@H]3CCC/C=C/c4ccc(cc4)C[C@@H](C(=O)N(C)CC(=O)N[C@@H](CCc4cc(F)c(C(F)(F)F)c(F)c4)C(=O)N2C1)N1CC/C=C\C[C@@H](C1=O)N(C)C(=O)CN(C1CC1)C(=O)[C@H]([C@@H](C)CC)NC3=O [PP2957] | AA (a compound having 20 or more is denoted as AA) | A (a compound having 10 or more and less than 20 is denoted as A)
